According to publication PMC8705706, “Benzimidazole Derivatives as New and Selective Inhibitors of Arginase from Leishmania mexicana with Biological Activity against Promastigotes and Amastigotes” (International Journal of Molecular Sciences, 2021):
Where a name gives a salt, the structure may show the parent alone.

How the values were obtained:
[1] = tested on: Promastigotes of L. mexicana (MNYC/BZ/62/M379); assay: Biological activity against promastigotes, resazurin; assay type: cell-based, Leishmania mexicana; settings: 48 h
Protocol: Promastigotes of L. mexicana (MNYC/BZ/62/M379 reference strain) were grown in Schneider’s medium supplemented with fetal bovine serum 10% (v/v), ampicillin (100 U/mL)/streptomycin (100 µg/mL). Parasites were collected at log phase to assess the compounds and 5 × 10^5 promastigotes were seeded in a 96-wells plate. Compounds were previously dissolved in dimethyl sulfoxide (DMSO) up to a concentration of 1 mg/mL. Thereafter, serial dilutions were made with culture medium from 100 µg/mL to 0.8 µg/mL and then they were added to the wells by triplicates. Parasites non treated and treated with Glucantime, Amphotericin B and Miltefosine were included as […]. Parasites were incubated at 26 °C during 48 h and resazurin 2.5 mM was added at the end into each well. Afterwards, fluorescence intensity was measured with excitation/emission 535/590 nm in a spectrofluorometer (Infinite 200, Tecan Group Ltd., Mannedorf, Switzerland). Finally, half maximal inhibitory concentration (IC50) was determined through a Probit analysis. The assays were made by triplicate in 3 independent experiments.

[2] = tested on: amastigote of L. mexicana; assay: Biological activity against intracellular amastigotes in J774.2 macrophages, resazurin; assay type: cell-based, Leishmania mexicana; settings: intracellular L. mexicana amastigotes in J774.2 macrophages, 48 h
Protocol: Biological activity of the benzimidazole derivatives was also evaluated against the amastigote of L. mexicana. For this, 5 × 10^4 murine macrophages J774.2 (ATCC® TIB-67) per well were grown in a plate of 96 wells with RPMI medium at […], 5% CO2 during 24 h. The cells were infected with promastigotes in log phase in a 10:1 proportion (parasite: macrophage) and they were incubated at 37 °C, 5% CO2 during 24–48 h. A wash with RPMI medium to remove the not-infected promastigotes was made. Compounds were added in a serial dilution from 100 µg to 0.8 µg/mL in triplicate and were incubated at 37 °C, 5% CO2 for 48 h. Glucantime, Amphotericin B and Miltefosine were used as reference drugs. Then, the cells were lysed with a non-complemented Schneider’s medium lysis solution with SDS 0.01%, after incubating for 20 min the lysis solution was removed. Afterwards, Schneider medium was added incubating at 26 °C during four days at room temperature to differentiate intracellular amastigotes from free amastigotes. Thereafter, 20 µL of resazurin 2.5 mM was added to each well and incubated during 3 h. Fluorescence intensity and IC50 were measured as described for promastigotes. The assays were made by triplicate in 3 independent experiments.

[3] = tested on: Murine macrophages J774.2; parameters: method as in Matadamas-Martínez et al., 2019 [28]; settings: J774.2 murine macrophages; previous study under the same conditions; ref Matadamas-Martínez et al., 2019 [28]; cited from earlier work
[4] = tested on: L. amazonensis promastigotes; parameters: method as in PMID 33198198; settings: cited from earlier work
[5] = target: recombinant arginase from Leishmania mexicana (LmARG) (Leishmania mexicana, UniProt Q6TUJ5); assay: Inhibition of recombinant LmARG, colorimetric urea assay; assay type: biochemical; settings: for Inhibition behavior of LmARG: I50 curves; for inhibition at 200 µM: read-out: % Inhibition LmARG [200 μM]; for IC50: recombinant LmARG, read-out: I50 (concentration that inhibits 50% enzyme activity), LmARG
Protocol: (§1) The activity of the recombinant arginases was measured in a colorimetric assay with some modifications. Briefly, the enzyme (2 µg) was previously activated with 1 mM MnCl2, 100 mM Tris-HCl, pH 8 during 15 min at 37 °C. Thereafter, 50 mM L-arginine was added, and the reaction was stopped after 10 min using 30 µL of an acid mixture (H2SO4, H3PO4 and H2O [1:3:7]), and 20 µL of 245 mM of α-isonitrosopropiophenone (dissolved in ethanol). Samples were heated in a thermocycler at 95 °C for 1 h. The urea in the samples was measured at 550 nm in a Synergy H1 Hybrid Multi-Mode Microplate Reader (BioTek).
(§2) The fifty molecules with the highest docking score were selected for inhibition studies that were made under the conditions mentioned above, adding the respective compound (dissolved in DMSO) at a concentration of 200 µM, keeping a final 10% DMSO concentration. The concentration that inhibits 50% of the enzyme activity (I50) was determined through curves at different compound concentrations. The I50 was obtained fitting the curves to the equation reported by Téllez-Valencia, et al., 2002 [25].

human arginase 1 (HsARG) = target: T1, human arginase 1 (HsARG) (Homo sapiens, UniProt P05089); assay: Inhibition of recombinant human arginase 1, colorimetric urea assay; assay type: biochemical; settings: for Selectivity LmARG versus HsARG: comparison of inhibition of LmARG and HsARG; for Inhibition of recombinant HsARG: highest concentration possible to be tested, 1 mM
T1 construct: made in house; host or cells: E. coli BL21(DE3)pLysS
T1 sequence (P05089 1-322): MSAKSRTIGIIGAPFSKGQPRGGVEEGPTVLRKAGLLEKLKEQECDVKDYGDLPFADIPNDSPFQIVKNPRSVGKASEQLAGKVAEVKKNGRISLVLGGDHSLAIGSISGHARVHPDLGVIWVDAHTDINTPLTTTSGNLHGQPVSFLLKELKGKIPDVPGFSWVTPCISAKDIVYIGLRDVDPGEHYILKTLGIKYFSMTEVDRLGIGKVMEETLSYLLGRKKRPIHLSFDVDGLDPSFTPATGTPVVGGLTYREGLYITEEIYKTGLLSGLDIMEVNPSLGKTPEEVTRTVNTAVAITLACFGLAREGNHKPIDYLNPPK
Protocol: as §1, §2

[6] = Cytotoxicity assay, resazurin; assay type: cell-based; settings: mouse, J774.2 murine macrophages, maximum concentration evaluated
Protocol: Murine macrophages J774.2 (ATCC® TIB-67) (5 × 10^4 cells/well) were grown in plates of 96 wells for 24 h at 37 °C in 5% CO2. Thereafter, compounds were added in serial diluted concentrations (100 to 0.8 µg/mL) and they were incubated during 24 h. The cellular vitality was evaluated using resazurin, adding 20 µL to each well at 2.5 mM incubating 4 h. Finally, the cytotoxic concentration (CC50) was determined through a Probit analysis. The assays were made by triplicate in 3 independent experiments. CC50 values of Amphotericin B, Miltefosine and Glucantime were taken from a previous study performed under the same conditions by our research group.

promastigotes = settings: cited from earlier work

CSc1nc2cc(N3CCNCC3)c(Cl)cc2[nH]1 (as salt: HCl) [Compound 6, 6-Chloro-2-(methylthio)-5-(piperazin-1-yl)-1H-benzimidazole] gave a melting point of 235 to 237 °C.

COC(=O)Nc1nc2ccc(Cl)cc2n1C (hydrate or solvate) [Compound 8, Methyl (6-chloro-1-methyl-1H-benzimidazol-2-yl)carbamate] showed a melting point of 191.3 to 192.4 °C.

For C[C@@H]1[C@H](O)[C@@H](C)/C=C/C=C/C=C/C=C/C=C/C=C/C=C/[C@H](O[C@@H]2O[C@H](C)[C@@H](O)[C@H](N)[C@@H]2O)C[C@@H]2O[C@](O)(C[C@@H](O)C[C@@H](O)[C@H](O)CC[C@@H](O)C[C@@H](O)CC(=O)O[C@H]1C)C[C@H](O)[C@H]2C(=O)O [Amphotericin B], the IC50 ([1]; Leishmania mexicana) is listed as 0.89 µM, the IC50 ([2]; Leishmania mexicana) is listed as 1.3 µM and the CC50 [3] is listed as 7.4 µM.

For O=C(/C=C/c1ccc(O)c(O)c1)Nc1ccccc1 [CAPA, caffeic acid phenylamide], the IC50 [4] is listed as 82.6 µM.

With COC(=O)Nc1nc2cc(Cl)ccc2n1C [Compound 1, Methyl (5-chloro-1-methyl-1H-benzimidazol-2-yl)carbamate] the “Inhibition behavior of LmARG” value [5] was “cooperative behavior”, the inhibition at 200 µM [5] was 100% and the IC50 [5] was 52 µM. The “Selectivity LmARG versus HsARG” value (human arginase 1 (HsARG)) was “selective to the enzyme from parasite”, the “Inhibition of recombinant HsARG” value (human arginase 1 (HsARG)) was “none of the compounds inhibit completely the enzyme” and the IC50 ([1]; Leishmania mexicana) was 64 µM. For the same molecule, the IC50 ([2]; Leishmania mexicana) was 32 µM and the CC50 at 24 h [6] was greater than 417 µM.

For CSc1nc2cc(C(N)=O)c(Cl)cc2[nH]1 [Compound 2, 6-Chloro-2-(methylthio)-1H-benzimidazole-5-carboxamide], the “Inhibition behavior of LmARG” value [5] was “cooperative behavior”, the inhibition at 200 µM [5] was 100% and the IC50 [5] was 82 µM. The “Selectivity LmARG versus HsARG” value (human arginase 1 (HsARG)) was “selective to the enzyme from parasite”, the “Inhibition of recombinant HsARG” value (human arginase 1 (HsARG)) was “none of the compounds inhibit completely the enzyme” and the IC50 ([1]; Leishmania mexicana) was 132 µM. The IC50 ([2]; Leishmania mexicana) was 101 µM and the CC50 at 24 h ([6]; J774.2 macrophages) was greater than 414 µM.

Work on COC(=O)c1cc2c(cc1Cl)nc(SCC=NNC(N)=O)n2C [Compound 3, Methyl 2-((2-(2-carbamoylhydrazineylidene)ethyl)thio)-5-chloro-1-methyl-1H-benzimidazole-6-carboxylate] yielded an inhibition at 200 µM [5] of 60% and a melting point of 196.7 to 197.1 °C.

CC(=O)c1nc2cc(Cl)ccc2n1C [Compound 4] showed an inhibition at 200 µM [5] of 56%.

Work on CNC(=O)c1nc2ccc(Cl)cc2n1C [Compound 5] yielded an inhibition at 200 µM [5] of 56%.

For CSc1nc2cc(N3CCNCC3)c(Cl)cc2[nH]1 [Compound 6, 6-Chloro-2-(methylthio)-5-(piperazin-1-yl)-1H-benzimidazole], the inhibition at 200 µM [5] was 46%.

Molecule COC(=O)c1cc2c(cc1Cl)nc(SCCNC(=N)N)n2C [Compound 7, Methyl 5-chloro-2-((2-guanidinoethyl)thio)-1-methyl-1H-benzimidazole-6-carboxylate] has an inhibition at 200 µM [5] of 40% and a melting point of 172.9 to 173.4 °C.

In the case of COC(=O)Nc1nc2ccc(Cl)cc2n1C [Compound 8, Methyl (6-chloro-1-methyl-1H-benzimidazol-2-yl)carbamate], the inhibition at 200 µM [5] is reported as 40%.

With CCCSc1ccc2c(c1)nc(NC(=O)OC)n2C [Compound 9, Methyl (1-methyl-5-(propylthio)-1H-benzimidazol-2-yl)carbamate] the inhibition at 200 µM [5] was 36% and the melting point was 120.5 to 122.1 °C.

For CC(=O)c1nc2ccc(Cl)cc2n1C [Compound 10], the inhibition at 200 µM [5] was 33%.

For CNc1ccc(Cl)cc1N [Compound 11], the inhibition at 200 µM [5] was 33%.

In the case of CNc1cc(Cl)ccc1N [Compound 12], the inhibition at 200 µM [5] is reported as 30%.

CCCSc1ccc(NC)c(N)c1 [Compound 13] showed an inhibition at 200 µM [5] of 27%.

COC(=O)c1cc2nc(S)[nH]c2cc1Cl [Compound 15] gave an inhibition at 200 µM [5] of 25%.

In the case of COC(=O)c1cc2c(cc1Cl)nc(S)n2C [Compound 16], the inhibition at 200 µM [5] is reported as 25%.

In the case of CCCCCCCCCCCCCCCCOP(=O)([O-])OCC[N+](C)(C)C [Miltefosine], the IC50 ([1]; Leishmania mexicana) is given as 8.1 µM, the IC50 ([2]; Leishmania mexicana) is given as 8.6 µM and the CC50 [3] is given as 141 µM.

In the case of NC(=NCCC[C@H](N)C(=O)O)NO [NOHA], the EC50 in promastigotes (promastigotes) is given as “millimolar order”.

In the case of N=C(NO)NCC[C@H](N)C(=O)O [nor-NOHA], the EC50 in promastigotes (promastigotes) is given as “millimolar order”.

For meglumine antimoniate [Glucantime], the IC50 [1] is listed as 101 µM, the IC50 [2] is listed as 35 µM and the CC50 [3] is listed as greater than 273 µM.
